Consider 24 compounds from patent publication US20250019385A1, “SPIROCYCLIC ANNULATED 2-AMINO-3-CYANO THIOPHENES AND DERIVATIVES FOR THE TREATMENT OF CANCER” (Boehringer Ingelheim International GmbH, priority 2023, published 2025).

A word on the IC50: it is the concentration that gives 50% inhibition. A lower IC50 goes with higher potency. As a reminder, the solubility is how much of the substance goes into solution per volume.

One series deals with MKN1 cells. In words: MKN1 CTG proliferation assay (120 h) (gastric cancer, wt amplified). As to conditions: Homo sapiens, MKN-1. The series is classed as cell-based. In outline: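 Cells were seeded at 200 per well in RPMI-1640 with 10% FCS, grown overnight, then exposed to logarithmic compound dilutions in duplicate for 120 h. Viability was read by CellTiter-Glo luminescence as percent of DMSO controls, with untreated T0 cells measured at dosing. IC50 came from four-parameter non-linear regression.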

Series [1] deals with KRAS (G12C)::SOS1 protein-protein interaction (Homo sapiens (Human), UniProt P01116, C118S/C51S/C80L/G12C). As to the kind of experiment: KRAS::SOS1 AlphaScreen binding assay (KRAS G12C). The settings on record: GDP. A digest of the protocol:
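Biotinylated KRAS G12C 1-169 (C51S/C80L/C118S, 7.5 nM) and GST-SOS1 564-1049 (5 nM) with 10 μM GDP in PBS, 0.1% BSA, 0.05% Tween 20 were incubated 30 min with compounds (top 100 μM, eleven fivefold dilutions). AlphaScreen beads were then added for 60 min at room temperature in the dark. IC50 came from a 4-parameter logistic fit.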
Background: Alpha assays give light when donor and acceptor beads are brought close together.

Series [2] is described as follows: Plasma protein binding assay (PPB), equilibrium dialysis. As to conditions: bovine, 10% FCS in PBS, read-out: PPB 10% FCS (% fu). The format is in vitro ADME. In outline:
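Compound at 1-10 μmol/L in 10% FCS in PBS was dialysed against PBS (with or without dextran) across a 5-10 kg/mol cut-off membrane for 3-5 h at 37° C. Both chambers were protein-precipitated and compound was quantified by LC-MS. The unbound fraction was calculated from the serum-side and buffer-side concentrations.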
(In equilibrium dialysis only unbound substance equilibrates across the membrane.)

A short description of series [3]: Solubility measurement (DMSO solution precipitation method). The format is physicochemical. The settings on record: aqueous buffer, kinetic from dmso stock. In outline: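 A 10 mM DMSO stock was diluted to 250 μM final in McIlvaine buffer at pH 4.5 or 6.8, then shaken 24 h at ambient temperature. After filtering off precipitate, filtrate concentration was quantified by LC-UV against a fully dissolved reference in acetonitrile/water (1:1).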

Setting [4] is: McIlvaine buffer pH 4.5, 24 h, read-out: solubility pH 4.5.
The mark [5] stands for this setting: McIlvaine buffer pH 6.8, 24 h, read-out: solubility pH 6.8.

In brackets after ≈: the same amount, converted by molar mass. Read-outs that look alike come from different tables or passages of the source.

KRAS (G12C)::SOS1 protein-protein interaction, sequence (P01116 other isoform, or with tags, fused parts or gaps G12C/C51S/C80L/C118S): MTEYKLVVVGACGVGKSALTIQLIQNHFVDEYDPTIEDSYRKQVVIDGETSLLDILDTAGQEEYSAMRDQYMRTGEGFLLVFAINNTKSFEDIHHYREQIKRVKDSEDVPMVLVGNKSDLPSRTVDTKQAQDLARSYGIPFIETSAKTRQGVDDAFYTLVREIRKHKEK

For `C[C@H](Oc1nc(-c2onc3c2CCC[C@@]32CCCc3sc(N)c(C#N)c32)nc2c1n(C)c(=O)n2[C@@H]1CCOC1)[C@@H]1CC[C@H](C)N1C` [I-26], the results for the IC50 (in the series on MKN1 cells; in series [1]) were 24 nM and 2 nM, respectively. In addition, the fraction unbound in series [2] turned out to be 0.17. Also, the solubility at 24 h in series [3] (setting [4]) is > 158 µg/mL; in series [3] (setting [5]) it was 127 µg/mL (≈ 197 µM).
Consider `C[C@H](Oc1nc(-c2onc3c2CCC[C@@]32CCCc3sc(N)c(C#N)c32)nc2c1n(C)c(=O)n2[C@@H]1CCOC1)[C@@H]1C[C@H](F)CN1C` [I-27], for which the IC50 worked out at 126 nM in the series on MKN1 cells and 2 nM in series [1]. Further, the fraction unbound in series [2] came out at 0.15. Besides, the solubility at 24 h in series [3] (setting [4]) is > 153 µg/mL; in series [3] (setting [5]) it was 9 µg/mL (≈ 13.9 µM).
The matching figures for `C[C@H](Oc1nc(-c2onc3c2CCC[C@@]32CCCc3sc(N)c(C#N)c32)nc2c1n(C)c(=O)n2[C@@H]1CCOC1)[C@@H]1C[C@@H]2C[C@@H]2N1C` [I-28]: 134 nM, 2 nM, 0.05, > 166 µg/mL and 16 µg/mL (≈ 24.9 µM).
The matching figures for `C[C@H](Oc1nc(-c2onc3c2CCC[C@@]32CCCc3sc(N)c(C#N)c32)nc2c1n(C)c(=O)n2[C@@]12COC[C@@H]1C2)[C@@H]1CCCN1C` [I-29]: 5 nM, 1 nM, 0.39, > 161 µg/mL and > 165 µg/mL.
The corresponding values for `CCn1c(=O)n([C@@H]2CCCOC2)c2nc(-c3onc4c3CCC[C@@]43CCCc4sc(N)c(C#N)c43)nc(O[C@@H](C)[C@@H]3CCCN3C)c21` [I-30] are 39 nM, 2 nM, 0.08, > 154 µg/mL and 88 µg/mL (≈ 134 µM).
In the case of `CO[C@H]1C[C@@H](n2c(=O)n(C)c3c(O[C@@H](C)[C@@H]4CCCN4C)nc(-c4onc5c4CCC[C@@]54CCCc5sc(N)c(C#N)c54)nc32)C1` [I-31], the IC50 in the series with MKN1 cells was determined as 987 nM; in series [1] it was 2 nM. In addition, in series [2], the fraction unbound came out at 0.09. Also, the figures for the solubility at 24 h in series [3] (setting [4]) and in series [3] (setting [5]) were > 158 µg/mL and > 148 µg/mL, respectively.
The matching figures for `CC(C)n1c(=O)n([C@@H]2CCOC2)c2nc(-c3onc4c3CCC[C@@]43CCCc4sc(N)c(C#N)c43)nc(O[C@@H](C)[C@@H]3CCCN3C)c21` [I-32]: 429 nM, 2 nM, 0.07, > 155 µg/mL and 63 µg/mL (≈ 95.6 µM).
The matching figures for `CCn1c(=O)n([C@@H]2CCCOC2)c2nc(-c3onc4c3CCC[C@@]43CCCc4sc(N)c(C#N)c43)nc(OC[C@@]34CCCN3C[C@H](F)C4)c21` [I-33]: 4150 nM, 22 nM, 0.02, > 163 µg/mL and 8 µg/mL (≈ 11.6 µM).
For the compound `CCn1c(=O)n([C@@H]2CCCOC2)c2nc(-c3onc4c3CCC[C@@]43CCCc4sc(N)c(C#N)c43)nc(OCC34CCCN3CCC4)c21` [I-34], the values for the IC50 (in the series with MKN1 cells; in series [1]) were 3400 nM and 6 nM, respectively. For the same compound, the fraction unbound in series [2] worked out at 0.07. Further, the solubility at 24 h in series [3] (setting [4]) is > 158 µg/mL; in series [3] (setting [5]), > 148 µg/mL.
Take `CCn1c(=O)n([C@@H]2CCCOC2)c2nc(-c3onc4c3CCC[C@@]43CCCc4sc(N)c(C#N)c43)nc(O[C@@H](C)C34CCCN3CCC4)c21` [I-36]: the values for the IC50 (with MKN1 cells; in series [1]) were 239 nM and 2 nM, respectively. Moreover, the fraction unbound in series [2] was found to be 0.06. The figures for the solubility at 24 h in series [3] (setting [4]) and in series [3] (setting [5]) were 135 µg/mL (≈ 197 µM) and 94 µg/mL (≈ 137 µM), respectively.
The matching figures for `C[C@H](Oc1nc(-c2onc3c2CCC[C@@]32CCCc3sc(N)c(C#N)c32)nc2c1N(C)C(=O)CN2[C@@H]1CCOC1)[C@@H]1CCCN1C` [I-37]: 319 nM, 7 nM, 0.13, > 151 µg/mL and 113 µg/mL (≈ 175 µM).
The matching figures for `C[C@H](Oc1nc(-c2onc3c2CCC[C@@]32CCCc3sc(N)c(C#N)c32)nc2c1ncn2[C@@H]1CCOC1)[C@@H]1CCCN1C` [I-38]: 32 nM, 2 nM, 0.34, > 144 µg/mL and > 139 µg/mL.
The matching figures for `Cc1nc2c(O[C@@H](C)[C@@H]3CCCN3C)nc(-c3onc4c3CCC[C@@]43CCCc4sc(N)c(C#N)c43)nc2n1[C@@H]1CCOC1` [I-39]: 29 nM, 2 nM, 0.24, > 147 µg/mL and > 137 µg/mL.
Turning to `Cc1cc2c(O[C@@H](C)[C@@H]3CCCN3C)nc(-c3onc4c3CCC[C@@]43CCCc4sc(N)c(C#N)c43)nc2n1[C@@H]1CCOC1` [I-40], the figures for the IC50 (in the series with MKN1 cells; in series [1]) were 217 nM and 2 nM, respectively. Moreover, the fraction unbound in series [2] worked out at 0.09. For the same compound, the solubility at 24 h in series [3] (setting [4]) is > 124 µg/mL; in series [3] (setting [5]) it was 44 µg/mL (≈ 71.7 µM).
For `Cc1cn([C@@H]2CCOC2)c2nc(-c3onc4c3CCC[C@@]43CCCc4sc(N)c(C#N)c43)nc(O[C@@H](C)[C@@H]3CCCN3C)c12` [I-41], the IC50 in the series on MKN1 cells was determined as 696 nM; in series [1], 4 nM. In series [2], the fraction unbound came out at 0.35. Also, the solubility at 24 h in series [3] (setting [4]) is > 137 µg/mL; in series [3] (setting [5]) it was 32 µg/mL (≈ 52.1 µM).
The matching figures for `Cc1nn([C@@H]2CCOC2)c2nc(-c3onc4c3CCC[C@@]43CCCc4sc(N)c(C#N)c43)nc(O[C@@H](C)[C@@H]3CCCN3C)c12` [I-42]: 81 nM, 2 nM, 0.11, > 145 µg/mL and 112 µg/mL (≈ 182 µM).
With `C[C@H](Oc1nc(-c2onc3c2CCC[C@@]32CCCc3sc(N)c(C#N)c32)nc2c1cnn2[C@@H]1CCOC1)[C@@H]1CCCN1C` [I-43], the figures for the IC50 (in the series on MKN1 cells; in series [1]) were 155 nM and 2 nM, respectively. Besides, the fraction unbound in series [2] came to 0.11. The solubility at 24 h is > 147 µg/mL in series [3] (setting [4]) and 113 µg/mL (≈ 188 µM) in series [3] (setting [5]).
The corresponding values for `C[C@@H]1COC[C@H](n2c(=O)n(C)c3c(O[C@@H](C)[C@@H]4CCCN4C)nc(-c4onc5c4CCC[C@@]54CCCc5sc(N)c(C#N)c54)nc32)C1` [I-44] are 10 nM, 2 nM, 0.1, > 157 µg/mL and 2 µg/mL (≈ 3.04 µM).
Turning to `C[C@H](Oc1nc(-c2onc3c2CCC[C@@]32CCCc3sc(N)c(C#N)c32)nc2c1COC[C@]21CCOC1)[C@@H]1CCCN1C` [I-54], the values for the IC50 (in the series on MKN1 cells; in series [1]) were 7 nM and 2 nM, respectively. Besides, in series [2], the fraction unbound was determined as 0.34. Besides, the results for the solubility at 24 h in series [3] (setting [4]) and in series [3] (setting [5]) were > 145 µg/mL and > 142 µg/mL, respectively.
In the case of `CO[C@H]1CCN(C)[C@@H]1[C@H](C)Oc1nc(-c2noc3c2CCC[C@@]32CCCc3sc(N)c(C#N)c32)nc2c1n(C)c(=O)n2[C@@H]1CCOC1` [II-1], the values for the IC50 (with MKN1 cells; in series [1]) were 6 nM and 1 nM, respectively. Moreover, the fraction unbound in series [2] was determined as 0.09. For the same compound, the figures for the solubility at 24 h in series [3] (setting [4]) and in series [3] (setting [5]) were > 161 µg/mL and 37 µg/mL (≈ 56 µM), respectively.
On to `C[C@H](Oc1nc(-c2noc3c2CCC[C@@]32CCCc3sc(N)c(C#N)c32)nc2c1n(C)c(=O)n2[C@@H]1CCOC1)[C@@H]1CCCN1C` [II-2], for which the IC50 worked out at 4 nM with MKN1 cells and 1 nM in series [1]. In series [2], the fraction unbound came out at 0.19. Also, the solubility at 24 h in series [3] (setting [4]) is > 154 µg/mL; in series [3] (setting [5]) it was > 153 µg/mL.
The corresponding values for `CO[C@H]1CCN(C)[C@@H]1[C@H](C)Oc1nc(-c2noc3c2CCC[C@@]32CCCc3sc(N)c(C#N)c32)nc2c1n(C)c(=O)n2[C@@H]1CCCOC1` [II-3] are 14 nM, 2 nM, 0.03, > 151 µg/mL and 11 µg/mL (≈ 16.3 µM).
The matching figures for `C[C@H](Oc1nc(-c2noc3c2CCC[C@@]32CCCc3sc(N)c(C#N)c32)nc2c1cnn2[C@@H]1CCOC1)[C@@H]1CCCN1C` [II-4]: 63 nM, 2 nM, 0.1, > 139 µg/mL and 104 µg/mL (≈ 173 µM).
Take `C[C@H](Oc1nc(-c2noc3c2CCC[C@@]32CCCc3sc(N)c(C#N)c32)nc2c1CN(c1ncccn1)[C@]21CCOC1)[C@@H]1CCCN1C` [II-7a]: the IC50 in the series with MKN1 cells is 41 nM; in series [1], 2 nM. Also, the fraction unbound in series [2] amounted to 0.02. Also, the solubility at 24 h was found to be 65 µg/mL (≈ 97.6 µM) in series [3] (setting [4]) and 24 µg/mL (≈ 36 µM) in series [3] (setting [5]).
